Some test systems named below: HOP-62 NSCLC; HOP-92 NSCLC; LOX IMVI melanoma; NCI-H460 lung; SF-268 CNS; SF-539 CNS; SW-620 colon; UACC-62 melanoma; UO-31 renal; EKVX NSCLC.
What all share (assay): NCI-60 cell line screen, 48 h

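The compound was tested at five concentrations on cells cultured in 96-well plates, with a 48-hour exposure period. GI50 marks 50% less growth. Definition used: TGI = concentration required for complete inhibition of growth.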

As to `COC(=O)C1(F)C(=O)NC(=O)NC1OC` (stereo not drawn), the TGI with HOP-62 NSCLC, with HOP-92 NSCLC, with LOX IMVI melanoma, in the assay on NCI-H460 lung, with SF-268 CNS and in the assay with SF-539 CNS was over 100 µM in each case. Further, the TGI in the assay on SW-620 colon, in the assay on UACC-62 melanoma and in the assay on UO-31 renal was over 100 µM in each case.

For `Cn1cc(CO)c2ccccc21`, the GI50 is 50.7 µM with EKVX NSCLC; 73.8 µM in the assay with HOP-62 NSCLC; 33.9 µM with HOP-92 NSCLC; 30.7 µM in the assay on NCI-H460 lung; 60.6 µM in the assay on SF-268 CNS; 40.6 µM in the assay on SF-539 CNS. For the same molecule, the GI50 in the assay on SW-620 colon is 19.1 µM; in the assay with UACC-62 melanoma, 54.9 µM; in the assay with UO-31 renal it was 4.28 µM. The TGI in the assay with EKVX NSCLC, with HOP-62 NSCLC, with HOP-92 NSCLC, in the assay on NCI-H460 lung, with SF-268 CNS and with SF-539 CNS was over 100 µM each time. Further, the TGI is 91.1 µM in the assay on SW-620 colon, over 100 µM in the assay on UACC-62 melanoma and over 100 µM in the assay with UO-31 renal.

With `COc1ccc(-c2cc(/C=C/C(=O)c3cc(OC)c(OC)c(OC)c3)[nH]n2)cc1OC`, the GI50 in the assay on HOP-62 NSCLC was 1.45 µM; in the assay on HOP-92 NSCLC, 1.61 µM; in the assay on LOX IMVI melanoma, 1.46 µM; with NCI-H460 lung it was 1.04 µM; in the assay with SF-268 CNS it was 1.68 µM; in the assay with SF-539 CNS, 0.309 µM. Besides, the results for the GI50 with SW-620 colon, with UACC-62 melanoma and with UO-31 renal were 1.5 µM, 1.79 µM and 1.27 µM, respectively. For the same molecule, the TGI with HOP-62 NSCLC stood at 3.59 µM; in the assay with HOP-92 NSCLC it was 5.48 µM; with LOX IMVI melanoma it was 2.88 µM; in the assay with NCI-H460 lung, 3.6 µM; with SF-268 CNS it was 3.9 µM; with SF-539 CNS it was 1.48 µM. Further, the results for the TGI with SW-620 colon, with UACC-62 melanoma and in the assay on UO-31 renal were 4.16 µM, 3.88 µM and 2.59 µM, respectively.

With `CCN(CC)CCOc1ccc(/C=C2\CC3C4CC=C5C[C@@H](OC(C)=O)CC[C@]5(C)C4CC[C@]3(C)C2=O)cc1OC` (stereo partly drawn), the GI50 in the assay on EKVX NSCLC is 16.7 µM; in the assay on HOP-62 NSCLC, 4.34 µM; with HOP-92 NSCLC, 13.3 µM; in the assay with SF-268 CNS, 4.14 µM; in the assay on UACC-62 melanoma it was 2.2 µM; with UO-31 renal, 11.1 µM. In addition, the TGI with EKVX NSCLC came to 36.3 µM; in the assay on HOP-62 NSCLC it was 16.8 µM; with HOP-92 NSCLC, 37.7 µM; with SF-268 CNS it was 18.4 µM; in the assay with UACC-62 melanoma it was 4.09 µM; in the assay on UO-31 renal, 23.1 µM.

For `CC1(C)C2CCC13C(=O)C1OC3(C2)C2C(=O)c3c(O)cccc3C(=O)C12` (stereo not drawn), the GI50 is 8.37 µM in the assay on EKVX NSCLC; 16.1 µM in the assay with HOP-62 NSCLC; 0.566 µM with HOP-92 NSCLC; 3.75 µM in the assay on NCI-H460 lung; 3.06 µM with SF-268 CNS; 2.64 µM in the assay on SF-539 CNS. Further, the GI50 with UACC-62 melanoma was 0.2 µM; with UO-31 renal, 4.5 µM. Besides, the TGI in the assay on EKVX NSCLC turned out to be 21.4 µM; in the assay with HOP-62 NSCLC, 31.7 µM; in the assay with HOP-92 NSCLC, 1.89 µM; in the assay with NCI-H460 lung it was 21.2 µM; in the assay on SF-268 CNS, 15.3 µM; with SF-539 CNS it was 8.05 µM. The TGI was 0.403 µM in the assay with UACC-62 melanoma and 18.5 µM with UO-31 renal.

Take `O=C(O)Cn1ccnc1[N+](=O)[O-]`: the TGI with EKVX NSCLC, in the assay with HOP-62 NSCLC, with HOP-92 NSCLC, in the assay on NCI-H460 lung, in the assay with SF-268 CNS and with SF-539 CNS was over 100 µM each time. The TGI with SW-620 colon, in the assay on UACC-62 melanoma and with UO-31 renal was over 100 µM each time.

As for `NC(=O)c1cc(I)ccc1NC(=O)COc1ccccc1`, the GI50 is 0.598 µM with HOP-62 NSCLC; 2.98 µM in the assay on HOP-92 NSCLC; 1.01 µM in the assay with LOX IMVI melanoma; 0.433 µM with NCI-H460 lung; 1.14 µM in the assay with SF-268 CNS; 0.29 µM in the assay on SF-539 CNS. Also, the GI50 with SW-620 colon was 0.432 µM; in the assay with UACC-62 melanoma, 0.814 µM; in the assay on UO-31 renal, 4.27 µM. Besides, the TGI in the assay with HOP-62 NSCLC was 12.4 µM; in the assay with HOP-92 NSCLC it was 21.4 µM; in the assay with LOX IMVI melanoma it was over 100 µM; in the assay with NCI-H460 lung, over 100 µM; in the assay on SF-268 CNS, 26.1 µM; with SF-539 CNS it was 1.58 µM. Moreover, the TGI in the assay with SW-620 colon, in the assay on UACC-62 melanoma and in the assay on UO-31 renal was over 100 µM throughout.

Regarding `CC12OC(C(=O)C13CCC3)C1C(=O)c3ccccc3C(=O)C12` (stereo not drawn), the GI50 with EKVX NSCLC, in the assay on HOP-62 NSCLC, in the assay with HOP-92 NSCLC, in the assay with NCI-H460 lung, in the assay on SF-268 CNS and in the assay with SF-539 CNS was over 100 µM each time. Besides, the GI50 with UO-31 renal is over 100 µM. In addition, the TGI with EKVX NSCLC, in the assay with HOP-62 NSCLC, in the assay on HOP-92 NSCLC, with NCI-H460 lung, with SF-268 CNS and in the assay with SF-539 CNS was over 100 µM in each case. The same molecule registered a TGI in the assay with UO-31 renal of over 100 µM.

As for `O=C(/C=C/c1cn(-c2ccccc2)nc1-c1ccc([N+](=O)[O-])cc1)c1ccc(Cl)cc1`, the GI50 is over 22.3 µM in the assay on EKVX NSCLC; 14.9 µM in the assay on HOP-62 NSCLC; 3.36 µM in the assay with HOP-92 NSCLC; 2.78 µM with SF-268 CNS; 2.19 µM with SF-539 CNS; 6.01 µM in the assay on UACC-62 melanoma. The TGI was over 100 µM in the assay on EKVX NSCLC; 51.1 µM with HOP-62 NSCLC; 70.1 µM with HOP-92 NSCLC; over 100 µM in the assay with SF-268 CNS; over 100 µM with UACC-62 melanoma.

As to `CCCn1cnc2c(SCc3ccccc3)nc(N)nc21`, the GI50 is 67.3 µM in the assay with EKVX NSCLC; over 100 µM with HOP-62 NSCLC; 98.9 µM in the assay on LOX IMVI melanoma; 42.2 µM with NCI-H460 lung; over 100 µM in the assay with SF-268 CNS; over 100 µM in the assay on SF-539 CNS. Further, the GI50 in the assay with SW-620 colon is over 100 µM; with UACC-62 melanoma, over 100 µM; in the assay on UO-31 renal, 67.7 µM. The TGI in the assay with EKVX NSCLC, in the assay on HOP-62 NSCLC, in the assay on LOX IMVI melanoma, with NCI-H460 lung, in the assay with SF-268 CNS and with SF-539 CNS was over 100 µM in each case. In addition, the TGI with SW-620 colon, in the assay on UACC-62 melanoma and with UO-31 renal was over 100 µM throughout.

Regarding `NC(=O)c1c[se]c(C2OC(COP(=O)(O)CP(=O)(O)OCC3OC(n4cnc5c(N)ncnc54)C(O)C3O)C(O)C2O)n1` (stereo not drawn), the TGI with EKVX NSCLC, in the assay on HOP-62 NSCLC, with HOP-92 NSCLC, in the assay with NCI-H460 lung, in the assay on SF-268 CNS and in the assay with SF-539 CNS was over 100 µM throughout. Besides, the TGI with SW-620 colon and in the assay on UO-31 renal was over 100 µM throughout.

On to `CC[P+]1(CC)CCCC1`, for which the TGI in the assay on EKVX NSCLC, in the assay on HOP-62 NSCLC, with LOX IMVI melanoma, in the assay on NCI-H460 lung, in the assay with SF-268 CNS and in the assay with SF-539 CNS was over 100 µM in each case. Further, the TGI in the assay with SW-620 colon, in the assay on UACC-62 melanoma and in the assay with UO-31 renal was over 100 µM throughout.

On to `C=C(CNCCc1ccc(O)cc1)[C@@H]1CC[C@]2(CO)CC[C@]3(C)[C@H](CC[C@@H]4[C@@]5(C)CCC(N)C(C)(C)[C@@H]5CC[C@]43C)[C@@H]12` (stereo partly drawn), for which the GI50 was 1.66 µM in the assay with EKVX NSCLC; 1.73 µM in the assay with HOP-62 NSCLC; 1.12 µM with HOP-92 NSCLC; 1.51 µM in the assay with NCI-H460 lung; 1.52 µM with SF-268 CNS; 1.56 µM with SF-539 CNS. For the same molecule, the GI50 in the assay with SW-620 colon was 0.915 µM; in the assay on UO-31 renal it was 1.42 µM. The TGI amounted to 3.36 µM in the assay with EKVX NSCLC; 3.36 µM in the assay with HOP-62 NSCLC; 2.49 µM in the assay on HOP-92 NSCLC; 3.07 µM in the assay with NCI-H460 lung; 3.03 µM in the assay with SF-268 CNS; 2.94 µM in the assay on SF-539 CNS. For the same molecule, the TGI is 2.27 µM in the assay with SW-620 colon and 2.76 µM in the assay with UO-31 renal.

As for `O=[N+]([O-])C1C2C=CC(C2)[C@H]1c1ccc(Cl)cc1Cl` (stereo partly drawn), the TGI in the assay on HOP-92 NSCLC, with LOX IMVI melanoma, in the assay with NCI-H460 lung, with SF-268 CNS, with SF-539 CNS and with SW-620 colon was over 100 µM each time. In addition, the TGI in the assay on UO-31 renal was 67.2 µM.

Consider `c1cnc2[nH]cc(-c3csc(-c4cn(CCCN5CCCCC5)c5ccccc45)n3)c2c1`, for which the GI50 in the assay with HOP-62 NSCLC is 1.47 µM; in the assay with HOP-92 NSCLC it was 1.36 µM; in the assay with SF-268 CNS, 1.56 µM; in the assay with SF-539 CNS it was 1.68 µM; with UACC-62 melanoma it was 1.7 µM; in the assay on UO-31 renal it was 1.18 µM. In addition, the TGI in the assay on HOP-62 NSCLC came to 3.02 µM; in the assay on HOP-92 NSCLC, 2.88 µM; with SF-268 CNS, 3.19 µM; in the assay on SF-539 CNS it was 3.1 µM; in the assay on UACC-62 melanoma, 3.3 µM; in the assay with UO-31 renal, 2.5 µM.

For `c1ccc(NC[Si]23OCCN(CCO2)CCO3)cc1`, the TGI in the assay with EKVX NSCLC, with HOP-92 NSCLC, in the assay with NCI-H460 lung, in the assay on SF-268 CNS, in the assay with SF-539 CNS and in the assay with SW-620 colon was over 100 µM in each case. Further, the TGI with UACC-62 melanoma and in the assay with UO-31 renal was over 100 µM throughout.

The values are drawn from PubChem BioAssay (NCI).
